This series concerns GENE-TOX genotoxicity assays, various organisms and cells. The series is described as follows: GENE-TOX mutagenicity studies. To be noted: for call: Assay Type: In vivo carcinogenicity studies, Assay Code: CCG+.
Where [1] appears, read: Species/Cell Type: Salmonella typhimurium (one or more of the five standard strains: TA98, TA100, TA1535, TA1537, and TA1538), Assay Type: Histidine reverse gene mutation, Ames assay, Assay Code: SALT, Evaluation Type: Evaluation A (Pre-1980).
Where [2] appears, read: Species/Cell Type: Salmonella typhimurium (one or more of the five standard strains: TA98, TA100, TA1535, TA1537, and TA1538), Assay Type: Histidine reverse gene mutation, Ames assay, Assay Code: SAL+, Evaluation Type: Evaluation A (Pre-1980).
Setting [3] is: Species/Cell Type: Bacillus subtilis (H17 vs M45), Assay Type: Rec-assay, spot test, DNA effects (bacterial DNA repair), Assay Code: REW+, Evaluation Type: Evaluation A (Pre-1980).
Where [4] appears, read: Species/Cell Type: Saccharomyces cerevisiae, Assay Type: Mitotic recombination or gene conversion, Assay Code: YEH+, Evaluation Type: Evaluation A (Pre-1980).
[5] abbreviates: Species/Cell Type: Human diploid fibroblasts, Assay Type: Unscheduled DNA synthesis (UDS) in vitro, DNA effects, Assay Code: UDH-, Evaluation Type: Evaluation A (Pre-1980).
Setting [6] is: Species/Cell Type: Human lymphocytes, Assay Type: Sister-chromatid exchange (SCE) in vitro, Assay Code: SCL+, Evaluation Type: Evaluation B (Post-1980).
Where [7] appears, read: Species/Cell Type: Human, Assay Type: Sister-chromatid exchange (SCE) in vitro, Assay Code: SC1+, Evaluation Type: Evaluation B (Post-1980).
Setting [8] is: Species/Cell Type: Escherichia coli polA (W3119 vs P3478), Assay Type: Rec-assay, DNA effects (bacterial DNA repair), Assay Code: RE1+, Evaluation Type: Evaluation A (Pre-1980).
Where [9] appears, read: Species/Cell Type: Nonhuman, Evaluation Type: Evaluation A (Pre-1980).
Setting [10] is: Species/Cell Type: Nonhuman, Assay Type: Sister-chromatid exchange (SCE) in vitro, Assay Code: SC2+D, Dose Response: With dose response, Evaluation Type: Evaluation B (Post-1980).
Where [11] appears, read: Species/Cell Type: Escherichia coli polA (W3119 vs P3478), Assay Type: Rec-assay, DNA effects (bacterial DNA repair), Assay Code: RE1T, Evaluation Type: Evaluation A (Pre-1980).

Activity calls are given as the source filed them. No rule for the calls is given here.

In the case of `CCCCCC[C@@H](O)[C@@H]1C2=C(C[C@H]([C@H](O)[C@@H]3CC=CC(=O)O3)CC3=C(C(=O)OC3=O)[C@@H]1O)C(=O)OC2=O`, the mutagenic call (Species/Cell Type: Bacillus subtilis (H17 vs M45), Assay Type: Rec-assay, spot test, DNA effects (bacterial DNA repair), Assay Code: REW-, Evaluation Type: Evaluation A (Pre-1980)) was “inactive; negative”; the mutagenic call (Species/Cell Type: Rodents, Sex: Male, Assay Type: Dominant lethal test, Assay Code: DLT+, Evaluation Type: Evaluation A (Pre-1980)) was “active; positive”; the mutagenic call (Species/Cell Type: Saccharomyces cerevisiae, Assay Type: Mitotic recombination or gene conversion, Assay Code: YEH-, Evaluation Type: Evaluation A (Pre-1980)) was “inactive; negative”; the mutagenic call under setting [1] is given as “no conclusion”.

For `O=C(CCNNC(=O)c1ccncc1)NCc1ccccc1`, the mutagenic call runs as follows: (Species/Cell Type: Nonhuman, Assay Type: Sister-chromatid exchange (SCE) in vivo, Assay Code: SC3+, Evaluation Type: Evaluation B (Post-1980)) “active; positive”; under setting [2], “active; positive”.

For `CC(=O)O[C@H]1[C@H]2O[C@H]2C2=CC(=O)[C@]3(C[C@]2(C)[C@H]1C)O[C@]3(C)C=O`, the mutagenic call by setting is: under setting [3], “active; positive”; (Species/Cell Type: Neurospora crassa, Assay Type: Reverse gene mutation, Assay Code: NER+, Evaluation Type: Evaluation A (Pre-1980)) “active; positive”; (Species/Cell Type: Nonhuman, Assay Type: Sister-chromatid exchange (SCE) in vitro, Assay Code: SC2T, Evaluation Type: Evaluation B (Post-1980)) “no conclusion”; (Species/Cell Type: Saccharomyces cerevisiae, Assay Type: Mitotic recombination or gene conversion, Assay Code: YEC+/-*, Activation: With metabolic activation, Evaluation Type: Evaluation A (Pre-1980)) “inactive; positive without activation, negative with activation”; under setting [4], “active; positive”; (Species/Cell Type: Saccharomyces cerevisiae, Assay Type: Reverse gene mutation, Assay Code: YER+, Evaluation Type: Evaluation A (Pre-1980)) “active; positive”. Also, the mutagenic call under setting [1] is given as “no conclusion”.

For the compound `Clc1cccc(Br)c1`, for the setting “Species/Cell Type: Salmonella typhimurium (one or more of the five standard strains: TA98, TA100, TA1535, TA1537, and TA1538), Assay Type: Histidine reverse gene mutation, Ames assay, Assay Code: SAL-, Evaluation Type: Evaluation A (Pre-1980)”, the mutagenic call was “inactive; negative”.

`CCN(Cc1ccc(CN(CC)C(=O)C(Cl)Cl)cc1)C(=O)C(Cl)Cl`: for the setting “Species/Cell Type: Human, Sex: Male, Assay Type: Sperm morphology, Assay Code: SPH+, Evaluation Type: Evaluation A (Pre-1980)”, the mutagenic call was “active; positive”.

Consider `O=C1OCCN1N=Cc1ccc([N+](=O)[O-])o1`, for which the mutagenic call is, setting by setting: under setting [3], “active; positive”; (Species/Cell Type: Drosophila melanogaster, Assay Type: Sex-linked recessive lethal gene mutation, Assay Code: SRL+, Evaluation Type: Evaluation A (Pre-1980)) “active; positive”; (Species/Cell Type: Escherichia coli WP2, Assay Type: Tryptophan reverse gene mutation, Assay Code: WP2+, Evaluation Type: Evaluation A (Pre-1980)) “active; positive”; (Species/Cell Type: Escherichia coli WP2 UVRA, Assay Type: Tryptophan reverse gene mutation, Assay Code: WPU+, Evaluation Type: Evaluation A (Pre-1980)) “active; positive”; under setting [5], “inactive; negative”; under setting [6], “active; positive”. Also, the mutagenic call runs as follows: (Species/Cell Type: Human lymphocytes, Assay Type: Sister-chromatid exchange (SCE) in vitro, Assay Code: SCLT, Evaluation Type: Evaluation A (Pre-1980)) “no conclusion”; under setting [7], “active; positive”; (Species/Cell Type: Human, Assay Type: Sister-chromatid exchange (SCE) in vitro, Assay Code: SC1T, Evaluation Type: Evaluation A (Pre-1980)) “no conclusion”.

Turning to `OCCI`, the mutagenic call is “active; positive” under setting [8]; “inactive; negative” (Species/Cell Type: Mouse, Sex: Male, Assay Type: Sperm morphology, Assay Code: SPI-, Evaluation Type: Evaluation A (Pre-1980)); “active; positive” under setting [2].

For the compound `Cc1ccc(C2CO2)cc1` (stereo unspecified), the mutagenic call is “active; positive” (Species/Cell Type: Escherichia coli WP2 UVRA, Assay Type: Tryptophan reverse gene mutation, Assay Code: WPU+D, Dose Response: With dose response, Evaluation Type: Evaluation A (Pre-1980)); “active; positive” under setting [6]; “active; positive” under setting [7]; “active; positive” under setting [2].

Regarding `CN(C)C(=O)Cl`, the mutagenic call by setting is: under setting [8], “active; positive”; under setting [5], “inactive; negative”; (Species/Cell Type: Mammalian polychromatic erythrocytes, Assay Type: Micronucleus test, chromosome aberrations, Assay Code: MNT+, Evaluation Type: Evaluation A (Pre-1980)) “active; positive”; under setting [10], “active; positive”; under setting [4], “active; positive”; under setting [2], “active; positive”. For the same compound, the mutagenic call reads like this: (Species/Cell Type: Salmonella typhimurium, Assay Type: Forward and reverse gene mutation, host-mediated assay, Assay Code: HMA+, Evaluation Type: Evaluation A (Pre-1980)) “active; positive”; (Species/Cell Type: Syrian hamster embryo (SHE) cells, Assay Type: Cell transformation, clonal assay, Assay Code: CTC+, Evaluation Type: Evaluation A (Pre-1980)) “active; positive”. For the same compound, under setting [9], the call is “active; positive”.

On to `CN(CCC(=O)OC[C@H](N)C(=O)O)N=O`, for which the mutagenic call by setting is: (Species/Cell Type: Escherichia coli polA (W3110 vs P3478), Assay Type: Rec-assay, DNA effects (bacterial DNA repair), Assay Code: RE2+, Evaluation Type: Evaluation A (Pre-1980)) “active; positive”; under setting [11], “no conclusion”.

In the case of `NCCS`, the mutagenic call reads like this: under setting [11], “no conclusion”; (Species/Cell Type: Human lymphocytes, Assay Type: Sister-chromatid exchange (SCE) in vitro, Assay Code: SCLT, Evaluation Type: Evaluation B (Post-1980)) “no conclusion”; (Species/Cell Type: Human, Assay Type: Sister-chromatid exchange (SCE) in vitro, Assay Code: SC1T, Evaluation Type: Evaluation B (Post-1980)) “no conclusion”; (Species/Cell Type: Neurospora crassa, Assay Type: Reverse gene mutation, Assay Code: NER-, Evaluation Type: Evaluation A (Pre-1980)) “inactive; negative”; under setting [10], “active; positive”; under setting [1], “no conclusion”.

`COc1cc(CNC(=O)CCCC/C=C/C(C)C)ccc1O`: the mutagenic call (Species/Cell Type: Mammalian polychromatic erythrocytes, Assay Type: Micronucleus test, chromosome aberrations, Assay Code: MNT+U, Dose Response: Unconfirmed positive response, Evaluation Type: Evaluation B (Post-1980)) is “active; positive”.

In the case of `CCS(=O)CCSP(=O)(OC)OC` (stereo unspecified), the mutagenic call is “no conclusion” (Species/Cell Type: Drosophila melanogaster, Assay Type: Sex-linked recessive lethal gene mutation, Assay Code: SRLT, Evaluation Type: Evaluation A (Pre-1980)); “active; positive” (Species/Cell Type: Human lymphocytes, Assay Type: Sister-chromatid exchange (SCE) in vitro, Assay Code: SCL+D, Dose Response: With dose response, Evaluation Type: Evaluation B (Post-1980)); “active; positive” (Species/Cell Type: Human, Assay Type: Sister-chromatid exchange (SCE) in vitro, Assay Code: SC1+D, Dose Response: With dose response, Evaluation Type: Evaluation B (Post-1980)); “active; positive” (Species/Cell Type: Mammalian polychromatic erythrocytes, Assay Type: Micronucleus test, chromosome aberrations, Assay Code: MNT+, Evaluation Type: Evaluation B (Post-1980)); “active; positive” under setting [10]; “active; positive” (Species/Cell Type: Saccharomyces cerevisiae, Assay Type: Mitotic recombination or gene conversion, Assay Code: YEC+, Evaluation Type: Evaluation A (Pre-1980)).

For the compound `CCC1(O)CC(OC2CC(N)C(OC3CC(O)C(OC4CCC(=O)C(C)O4)C(C)O3)C(C)O2)c2c(cc3c(c2O)C(=O)c2c(O)cccc2C3=O)C1C(=O)OC` (stereo unspecified), the mutagenic call (Species/Cell Type: Salmonella typhimurium (one or more of the five standard strains: TA98, TA100, TA1535, TA1537, and TA1538), Assay Type: Histidine reverse gene mutation, Ames assay, Assay Code: SAL+*, Activation: With metabolic activation, Evaluation Type: Evaluation A (Pre-1980)) is “active; positive”.

Turning to `O=C1c2c(O)ccc(O)c2C(=O)c2c(NCCc3ccccc3)ccc(NCCc3ccccc3)c21`, the mutagenic call (Species/Cell Type: Salmonella typhimurium (one or more of the five standard strains: TA98, TA100, TA1535, TA1537, and TA1538), Assay Type: Histidine reverse gene mutation, Ames assay, Assay Code: SAL+/-*, Activation: With metabolic activation, Evaluation Type: Evaluation A (Pre-1980)) was “inactive; positive without activation, negative with activation”.

Regarding `O=P(O)(O)CCCl`, for the setting “Species/Cell Type: Allium cepa, Assay Type: Chromosome aberrations, Assay Code: ALC+D, Dose Response: With dose response, Evaluation Type: Evaluation A (Pre-1980)”, the mutagenic call is “active; positive”.

On to `CN(C)Cc1cc(Br)ccc1OCC(=O)N/N=C/c1ccccc1`, for which the mutagenic call (Species/Cell Type: Saccharomyces cerevisiae, Assay Type: Reverse gene mutation, Assay Code: YERT, Evaluation Type: Evaluation A (Pre-1980)) is given as “no conclusion”.

Regarding `C1COCCO1`, under setting [9], the call is “active; positive”. The mutagenic call (Species/Cell Type: Syrian hamster embryo (SA7/SHE) cells, Assay Type: Cell transformation, viral enhanced, Assay Code: CT7-, Evaluation Type: Evaluation A (Pre-1980)) is “inactive; negative”.

Values taken from PubChem BioAssay AID1259408 (Genetic Toxicology Data Bank (GENE-TOX), 2018).
